Publication PMC8305101, “Synthesis and Cytotoxicity Evaluation of Spirocyclic Bromotyrosine Clavatadine C Analogs” (Marine Drugs, 2021)
Values joined by “and” are separate entries in the source; they are usually repeats but may differ in a detail not shown here. Identical values can stand only once. Like-named read-outs stand apart in the source and are kept apart here.

How the values were obtained:
[1] = Cytotoxicity in Hs27 normal skin fibroblasts (CellTiter-Glo ATP viability); format: cell-based; conditions: human, 48-h incubation, mean (SD) of 2–3 independent experiments in triplicate
Method: (§1) Analysis of selectivity to cancer cells. The cells were seeded to white frame and clear bottom 96-well plates (Perkin Elmer) at a density of 10,000 cells/well for the human malignant melanoma A-375 cell line (ATCC CRL-1619) and 7500 cells/well for the human skin fibroblast Hs27 cell line (ATCC CRL-1634). The cells were grown at 37 °C, 5% CO2 until they reached 70–80% confluence (approximately 24 h). Stock solutions of test compounds and a positive control (camptothecin, Sigma-Aldrich, St. Louis, MO, USA) were prepared in DMSO and diluted into the assay medium (growth medium with 5% FBS) to the final concentration. Final DMSO concentration was 0.5% in all samples. The culture medium was removed from the plate and compounds added, 200 µL/well. After a 48-h incubation, the amount of ATP, which is directly proportional to the number of viable cells present in culture, was quantified using CellTiter-Glo® Luminescent Cell Viability kit (Promega, Madison, WI, USA), according to manufacturer’s instructions. Origin Graphing and Analysis, version 9.55 (OriginLab, Northampton, MA, USA), was used for determination of CC50 values. The cancer cell selectivity index was calculated as a ratio of CC50 values between Hs27 fibroblasts and A-375 melanoma cells. Standard deviation of selectivity indices was calculated using Equation (1) (1) σ(x¯/y¯)=(σ(x)/x¯)^2+(σ(y)/y¯)^2

[2] = test system: human malignant melanoma A-375 cell line; test: Cytotoxicity in A-375 melanoma cells (CellTiter-Glo ATP viability); format: cell-based; conditions: for CC50 / cytotoxicity at 50 µM: Homo sapiens; for CC50: read-out: CC50 (µM) in A-375 Cells; for Selectivity Index (SI): ratio of CC50 values between Hs27 fibroblasts and A-375 melanoma cells, SD in parentheses
Method: as §1

[3] = read-out: CC50 (µM) in Hs27 Cells
[4] = A-375, 48 h, read-out: Primary Test Results (Cytotoxicity % at 50 µM in A-375 Cells), 50 µM, A-375 cells, 48-h incubation, single experiment with three technical replicates
[5] = 50 µM, A-375 cells, 48-h incubation, single experiment with three technical replicates

Molecule	CC50 at 48 h [1, 3]	CC50 ([2]; A-375, 48 h)	cytotoxicity at 50 µM [2, 4]	Selectivity Index (SI) [2]	CC50 at 48 h ([1]; Hs27 skin fibroblast cells)	cytotoxicity at 50 µM ([2]; 50 µM, A-375 cells, 48-h incubation, single experiment with three technical replicates, read-out: Primary Test Results (Cytotoxicity % at 50 µM in A-375 Cells))	CC50 ([2]; A-375 cells, 48-h incubation, mean (SD) of 2–3 independent experiments in triplicate)	Primary Test Results (Cytotoxicity % at 50 µM in A-375 Cells) [2, 5]
O=C(NCc1cccnc1)C1=NOC2(C=C(Br)C(=O)C(Br)=C2)C1 [Compound 36, 7,9-Dibromo-8-oxo-N-(pyridin-3-ylmethyl)-1-oxa-2-azaspiro[4.5]deca-2,6,9-triene-3-carboxamide]	6.1 µM	3.4 µM	101%	1.8 (0.2)	–	–	–	–
Cn1nc(-c2ccc(Cl)cc2)cc1NC(=O)C1=NOC2(C=CC(=O)C=C2)C1 [Compound 40, N-[3-(4-Chlorophenyl)-1-methyl-1H-pyrazol-5-yl]-8-oxo-1-oxa-2-azaspiro[4.5]deca-2,6,9-triene-3-carboxamide]	0.5 µM	0.5 µM	99.9%	1.0 (0.8)	–	–	–	–
Cn1nc(-c2ccc(Cl)cc2)cc1NC(=O)C1=NOC2(C=C(Br)C(=O)C(Br)=C2)C1 [Compound 41, 7,9-Dibromo-N-[3-(4-chlorophenyl)-1-methyl-1H-pyrazol-5-yl]-8-oxo-1-oxa-2-azaspiro[4.5]deca-2,6,9-triene-3-carboxamide]	1.4 µM	1.3 µM	97.6%	1.1 (0.8)	–	–	–	–
O=C1C=CC2(C=C1)CC(C(=O)N1CCOCC1)=NO2 [Compound 15, 3-(Morpholine-4-carbonyl)-1-oxa-2-azaspiro[4.5]deca-2,6,9-trien-8-one]	2.5 µM	3.8 µM	96.1%	0.7 (0.2)	–	–	–	–
CNCCCOc1c(Br)cc(CCNC(=O)/C(Cc2cc(Br)c(OC)c(Br)c2)=N/O)cc1Br [Purpurealidin I 3, Purpurealidin I, reference compound]	–	–	–	1.3 (0.1)	4.7 µM	98.9%	3.7 µM	–
CN(C)C(=O)C1=NOC2(C=C(Br)C(=O)C(Br)=C2)C1 [Compound 13, 7,9-Dibromo-N,N-dimethyl-8-oxo-1-oxa-2-azaspiro[4.5]deca-2,6,9-triene-3-carboxamide]	7.2 µM	3.7 µM	99.8%	–	–	–	–	–
COc1ccc(CNC(=O)C2=NOC3(C=C(Br)C(=O)C(Br)=C3)C2)cc1 [Compound 24, 7,9-Dibromo-N-(4-methoxybenzyl)-8-oxo-1-oxa-2-azaspiro[4.5]deca-2,6,9-triene-3-carboxamide]	3.3 µM	3.5 µM	97.8%	0.9 (0.3)	–	–	–	–
O=C(Nc1nc2c(s1)CCCC2)C1=NOC2(C=C(Br)C(=O)C(Br)=C2)C1 [Compound 42, 7,9-Dibromo-8-oxo-N-(4,5,6,7-tetrahydrobenzo[d]thiazol-2-yl)-1-oxa-2-azaspiro[4.5]deca-2,6,9-triene-3-carboxamide]	4.4 µM	3.5 µM	97.5%	1.3 (0.5)	–	–	–	–
COc1ccc(NC(=O)C2=NOC3(C=CC(=O)C=C3)C2)cc1Cl [Compound 20, N-(3-Chloro-4-methoxyphenyl)-8-oxo-1-oxa-2-azaspiro[4.5]deca-2,6,9-triene-3-carboxamide]	1.5 µM	1.2 µM	100%	1.3 (0.5)	–	–	–	–
N=C(N)NCCCCNC(=O)C1=NOC2(C=CC(=O)C=C2)C1 [Compound 11, N-(4-Guanidinobutyl)-8-oxo-1-oxa-2-azaspiro[4.5]deca-2,6,9-triene-3-carboxamide]	–	–	–	–	–	–	–	less than 25% and −8.2%
O=C1C=CC2(C=C1)CC(C(=O)NCCc1ccccn1)=NO2 [Compound 32, 8-Oxo-N-[2-(pyridin-2-yl)ethyl]-1-oxa-2-azaspiro[4.5]deca-2,6,9-triene-3-carboxamide]	2.2 µM	1.5 µM	97.5%	1.5 (0.9)	–	–	–	–
O=C1C=CC2(C=C1)CC(C(=O)NNC(=O)c1ccccn1)=NO2 [Compound 37, 8-Oxo-N’-picolinoyl-1-oxa-2-azaspiro[4.5]deca-2,6,9-triene-3-carbohydrazide]	6 µM	2.5 µM	89.3%	2.4 (0.3)	–	–	–	–
O=C1C=CC2(C=C1)CC(C(=O)Nc1cccnc1)=NO2 [Compound 26, 8-Oxo-N-(pyridin-3-yl)-1-oxa-2-azaspiro[4.5]deca-2,6,9-triene-3-carboxamide]	1.9 µM	2 µM	99.2%	1.0 (0.8)	–	–	–	–
CC(C)N(C)C(=O)C1=NOC2(C=C(Br)C(=O)C(Br)=C2)C1 [Compound 14, 7,9-Dibromo-N-isopropyl-N-methyl-8-oxo-1-oxa-2-azaspiro[4.5]deca-2,6,9-triene-3-carboxamide]	7.8 µM	7.2 µM	99.9%	–	–	–	–	–
7,9-Dibromo-8-oxo-N’-picolinoyl-1-oxa-2-azaspiro[4.5]deca-2,6,9-triene-3-carbohydrazide [Compound 39]	–	–	–	–	–	–	–	75.2%
O=C1C=CC2(C=C1)CC(C(=O)Nc1cc(Cl)cc(Cl)c1)=NO2 [Compound 18, N-(3,5-Dichlorophenyl)-8-oxo-1-oxa-2-azaspiro[4.5]deca-2,6,9-triene-3-carboxamide]	0.8 µM	0.4 µM	100%	2.0 (0.8)	–	–	–	–
O=C(NNC(=O)c1ccccn1)C1=NOC2(C=C(Br)C(=O)C(Br)=C2)C1 [Compound 38, 7,9-Dibromo-8-oxo-N’-picolinoyl-1-oxa-2-azaspiro[4.5]deca-2,6,9-triene-3-carbohydrazide]	6.4 µM	12.3 µM	93.5%	0.5 (0.5)	–	–	–	–
O=C(Nc1cccnc1)C1=NOC2(C=C(Br)C(=O)C(Br)=C2)C1 [Compound 27, 7,9-Dibromo-8-oxo-N-(pyridin-3-yl)-1-oxa-2-azaspiro[4.5]deca-2,6,9-triene-3-carboxamide]	6.6 µM	3 µM	101%	2.2 (0.5)	–	–	–	–
O=C(NCCc1ccccn1)C1=NOC2(C=C(Br)C(=O)C(Br)=C2)C1 [Compound 33, 7,9-Dibromo-8-oxo-N-[2-(pyridin-2-yl)ethyl]-1-oxa-2-azaspiro[4.5]deca-2,6,9-triene-3-carboxamide]	6.6 µM	3.6 µM	98.9%	1.9 (0.6)	–	–	–	–
COc1ccc(NC(=O)C2=NOC3(C=C(Br)C(=O)C(Br)=C3)C2)cc1Cl [Compound 21, 7,9-Dibromo-N-(3-chloro-4-methoxyphenyl)-8-oxo-1-oxa-2-azaspiro[4.5]deca-2,6,9-triene-3-carboxamide]	5 µM	2.3 µM	101%	2.2 (0.3)	–	–	–	–
CN(C)C(=O)C1=NOC2(C=CC(=O)C=C2)C1 [Compound 12, N,N-Dimethyl-8-oxo-1-oxa-2-azaspiro[4.5]deca-2,6,9-triene-3-carboxamide]	3.8 µM	2.1 µM	95.1%	1.8 (0.6)	–	–	–	–
O=C1C=CC2(C=C1)CC(C(=O)NNC(=O)CN1CCOCC1)=NO2 [Compound 17, N’-(2-Morpholinoacetyl)-8-oxo-1-oxa-2-azaspiro[4.5]deca-2,6,9-triene-3-carbohydrazide]	–	–	< 25%	–	–	–	–	20.8%
